Among the data in patent US12485132B2, “GPX4 inhibitors and senolytic compounds and uses thereof” (Rubedo Life Sciences, Inc., priority 2023, dated 2025) are IC50 values, retold here.

What is called IC50 is the point on the concentration scale where inhibition reaches its midpoint.

The first assay concerns senescent HEPG2 cells. Kind of assay: Senescence assay: viability of senescent HEPG2 cells. The class given is cell-based. Particulars: Homo sapiens, 24-72 hours incubation, viability by CellTiter-Glo or XTT, read-out: Absolute IC50 average HEPG2_SEN IC50. As for the experimental part:
(§1) Cells were maintained in DMEM media (high glucose, 4 mM L-glutamine, no sodium pyruvate) supplemented with 10% fetal bovine serum in a humidified incubator at 37° C. with 5% carbon dioxide. Senescence was induced via treatment with a sublethal concentration of chemotherapy (bleomycin, gemcitabine, doxorubicin, 5-fluorouridine), followed by a rest period without chemotherapy similarly to what is reported by others in the field (e.g., Aoshiba et al., 2003 Eur Respir J 22:436-443). Senescence was qualified by low EdU (5-ethynyl-2′-deoxyuridine) incorporation and high SA-β-Gal (senescence-associated beta-galactosidase) staining compared to proliferating untreated cells. Senescent cells were plated into 96-well plates at a density of 5-15,000 cells/well. The next day, compounds were added in duplicate across ten different concentrations spanning roughly four Log10 units. Cells were incubated with the compounds for 24-72 hours, at which point viability was quantified using CellTiter-Glo (Promega) or XTT (R&D Systems). The viability for treated cells was determined relative to untreated control cells. The log of the compound concentration vs. normalized mean viability was fit to a four parameters Hill function with variable slope. The bottom was constrained to be greater than zero. The X mean value for Y=50 was interpolated to determine the absolute IC50. The results in Table 2 indicate that many of the compounds are active in cells and can induce a dose dependent decrease in the viability of senescent HEPG2 and A549 cells.
Turning to `C#CC(F)(F)[C@]1(O)CC[C@H]2[C@@H]3CCC4=C/C(=N\OCCOCCO)CCC4=C3[C@@H](c3ccc(C4CC4)cc3)C[C@@]21C` [Compound 11, (8S,11R,13S,14S,17S,Z)-11-(4-cyclopropylphenyl)-17-(1,1-difluoroprop-2-yn-1-yl)-17-hydroxy-13-methyl-1,2,6,7,8,11,12,13,14,15,16,17-dodecahydro-3H-cyclopenta[a]phenanthren-3-one O-(2-(2-hydroxyethoxy)ethyl)oxime], the IC50 is 0.1 to 10 nM. Turning to `C#CC(F)(F)[C@]1(O)CC[C@H]2[C@@H]3CCC4=C/C(=N\OCCOCCOCCOC)CCC4=C3[C@@H](c3ccc(C4CC4)cc3)C[C@@]21C` [Compound 14, (8S,11R,13S,14S,17S,Z)-11-(4-cyclopropylphenyl)-17-(1,1-difluoroprop-2-yn-1-yl)-17-hydroxy-13-methyl-1,2,6,7,8,11,12,13,14,15,16,17-dodecahydro-3H-cyclopenta[a]phenanthren-3-one O-(2-(2-(2-methoxyethoxy)ethoxy)ethyl)oxime], the IC50 lay within 0.1 to 10 nM. The same measure, in the same setting: as for `C#CC(F)(F)[C@]1(O)CC[C@H]2[C@@H]3CCC4=C/C(=N/OCCOCCO)CCC4=C3[C@@H](c3ccc(C4CC4)cc3)C[C@@]21C` [Compound 12, (8S,11R,13S,14S,17S,E)-11-(4-cyclopropylphenyl)-17-(1,1-difluoroprop-2-yn-1-yl)-17-hydroxy-13-methyl-1,2,6,7,8,11,12,13,14,15,16,17-dodecahydro-3H-cyclopenta[a]phenanthren-3-one O-(2-(2-hydroxyethoxy)ethyl)oxime], the figure is 0.1 to 10 nM. On to `C#CC(F)(F)[C@]1(O)CC[C@H]2[C@@H]3CCC4=C/C(=N/NC(=O)CN)CCC4=C3[C@H](c3ccc(C4CC4)cc3)C[C@@]21C` [Compound 35, 2-amino-N′-((8S,11S,13S,14S,17S,E)-11-(4-cyclopropylphenyl)-17-(1,1-difluoroprop-2-yn-1-yl)-17-hydroxy-13-methyl-1,2,6,7,8,11,12,13,14,15,16,17-dodecahydro-3H-cyclopenta[a]phenanthren-3-ylidene)acetohydrazide], for which the IC50 lay within 0.1 to 10 nM.

For another assay, the system named is senescent A549 cells. Kind of assay: Senescence assay: viability of senescent A549 cells. The class given is cell-based. The note with it: Homo sapiens, 24-72 hours incubation, viability by CellTiter-Glo or XTT, read-out: Absolute IC50 average A549_SEN IC50. On the procedure:
as §1
In general terms: Cellular ATP, detected with luciferase, serves as a proxy for viable cell number.
For `C#CC(F)(F)[C@]1(O)CC[C@H]2[C@@H]3CCC4=CC(=O)CCC4=C3[C@H](c3ccc(OS(=O)(=O)C(F)(F)F)cc3)C[C@@]21C` [Compound 63, 4-((8S,11S,13S,14S,17S)-17-(1,1-difluoroprop-2-yn-1-yl)-17-hydroxy-13-methyl-3-oxo-2,3,6,7,8,11,12,13,14,15,16,17-dodecahydro-1H-cyclopenta[a]phenanthren-11-yl)phenyl trifluoromethanesulfonate], the IC50 fell in the range of 10 to 100 nM.

Take `C#CC(F)(F)[C@]1(O)CC[C@H]2[C@@H]3CCC4=CC(=O)CCC4=C3[C@H](c3ccc(OCC4(C)CCC4)cc3)C[C@@]21C` [Compound 60, (8S,11S,13S,14S,17S)-17-(1,1-difluoroprop-2-yn-1-yl)-17-hydroxy-13-methyl-11-(4-((1-methylcyclobutyl)methoxy)phenyl)-1,2,6,7,8,11,12,13,14,15,16,17-dodecahydro-3H-cyclopenta[a]phenanthren-3-one]: the IC50 was in the range of 0.1 to 10 nM. Consider `C#CC(F)(F)[C@]1(O)CC[C@H]2[C@@H]3CCC4=C/C(=N/OCCN)CCC4=C3[C@H](c3ccc(C4CC4)cc3)C[C@@]21C` [Compound 68, 2-((((8S,11S,13S,14S,17S,E)-11-(4-cyclopropylphenyl)-17-(1,1-difluoroprop-2-yn-1-yl)-17-hydroxy-13-methyl-1,2,6,7,8,11,12,13,14,15,16,17-dodecahydro-3H-cyclopenta[a]phenanthren-3-ylidene)amino)oxy)ethan-1-aminium chloride], for which the IC50 fell in the range of 10 to 100 nM.

Regarding `C#CC(F)(F)[C@]1(O)CC[C@H]2[C@@H]3CCC4=CC(=O)CCC4=C3[C@@H](c3ccc(OCC4(C)COC4)cc3)C[C@@]21C` [Compound 72, (8S,11R,13S,14S,17S)-17-(1,1-difluoroprop-2-yn-1-yl)-17-hydroxy-13-methyl-11-(4-((3-methyloxetan-3-yl)methoxy)phenyl)-1,2,6,7,8,11,12,13,14,15,16,17-dodecahydro-3H-cyclopenta[a]phenanthren-3-one], the 50% inhibitory concentration (IC50) fell in the range of 10 to 100 nM. Take `C#CC(F)(F)[C@]1(O)CC[C@H]2[C@@H]3CCC4=C(Cl)C(=O)CCC4=C3[C@H](c3ccc(OCC(F)(F)F)cc3)C[C@@]21C` [Compound 59, (8S,11S,13S,14S,17S)-4-chloro-17-(1,1-difluoroprop-2-yn-1-yl)-17-hydroxy-13-methyl-11-(4-(2,2,2-trifluoroethoxy)phenyl)-1,2,6,7,8,11,12,13,14,15,16,17-dodecahydro-3H-cyclopenta[a]phenanthren-3-one]: the IC50 is 10 to 100 nM. On to `C#CC(F)(F)[C@]1(O)CC[C@H]2[C@@H]3CCC4=C(Cl)C(=O)CCC4=C3[C@H](c3ccc(C4CC4)cc3)C[C@@]21C` [Compound 52, (8S,11S,13S,14S,17S)-4-chloro-11-(4-cyclopropylphenyl)-17-(1,1-difluoroprop-2-yn-1-yl)-17-hydroxy-13-methyl-1,2,6,7,8,11,12,13,14,15,16,17-dodecahydro-3H-cyclopenta[a]phenanthren-3-one], for which the IC50 lay in the range of 10 to 100 nM. Same read-out and setting: as for `C#CC(F)(F)[C@]1(O)CC[C@H]2[C@@H]3CCc4cc(OCCN5CCOCC5)ccc4C3[C@@H](c3ccc(S(=O)(=O)C4CC4)cc3)C[C@@]21C` (stereo partly drawn) [Compound 77, (8S,11S,13S,14S,17S)-11-(4-(cyclopropylsulfonyl)phenyl)-17-(1,1-difluoroprop-2-yn-1-yl)-13-methyl-3-(2-morpholinoethoxy)-7,8,9,11,12,13,14,15,16,17-decahydro-6H-cyclopenta[a]phenanthren-17-ol], the figure is at least 1000 nM; as for `C#CC(F)(F)[C@]1(O)CC[C@H]2[C@@H]3CCC4=CC(=N[N+](C)(C)C)CCC4=C3[C@H](c3ccc(C4CC4)cc3)C[C@@]21C` [Compound 66, 2-((8S,11S,13S,14S,17S)-11-(4-cyclopropylphenyl)-17-(1,1-difluoroprop-2-yn-1-yl)-17-hydroxy-13-methyl-1,2,6,7,8,11,12,13,14,15,16,17-dodecahydro-3H-cyclopenta[a]phenanthren-3-ylidene)-1,1,1-trimethylhydrazin-1-ium], 100 to 1000 nM; as for `C#CC(F)(F)[C@]1(O)CC[C@H]2[C@@H]3CCC4=CC(=O)CCC4=C3[C@H](c3ccc(OCc4ccc(S(=O)(=O)C(F)(F)F)cc4)cc3)C[C@@]21C` [Compound 57, (8S,11S,13S,14S,17S)-17-(1,1-difluoroprop-2-yn-1-yl)-17-hydroxy-13-methyl-11-(4-((4-((trifluoromethyl)sulfonyl)benzyl)oxy)phenyl)-1,2,6,7,8,11,12,13,14,15,16,17-dodecahydro-3H-cyclopenta[a]phenanthren-3-one], 10 to 100 nM. Same read-out and setting: as for `C#CC(F)(F)[C@]1(O)CC[C@H]2[C@@H]3CCC4=CC(=O)CCC4=C3[C@@H](c3ccc(OCC(F)(F)F)cc3)C[C@@]21C` [Compound 53, (8S,11R,13S,14S,17S)-17-(1,1-difluoroprop-2-yn-1-yl)-17-hydroxy-13-methyl-11-(4-(2,2,2-trifluoroethoxy)phenyl)-1,2,6,7,8,11,12,13,14,15,16,17-dodecahydro-3H-cyclopenta[a]phenanthren-3-one], the figure is 10 to 100 nM; as for `C#CC(F)(F)[C@]1(O)CC[C@H]2[C@@H]3CCC4=C/C(=N/NC(=O)[C@H]5C[C@H](O)C5)CCC4=C3[C@@H](c3ccc(OCC(F)(F)F)cc3)C[C@@]21C` [Compound 71, trans-N′-((8S,11R,13S,14S,17S)-17-(1,1-difluoroprop-2-yn-1-yl)-17-hydroxy-13-methyl-11-(4-(2,2,2-trifluoroethoxy)phenyl)-1,2,6,7,8,11,12,13,14,15,16,17-dodecahydro-3H-cyclopenta[a]phenanthren-3-ylidene)-3-hydroxycyclobutane-1-carbohydrazide], 10 to 100 nM; as for `C#CC(F)(F)[C@]1(O)CC[C@H]2[C@@H]3CCC4=C/C(=N/OCCN5CCNCC5)CCC4=C3[C@@H](c3ccc(C4CC4)cc3)C[C@@]21C` [Compound 7, (8S,11R,13S,14S,17S,E)-11-(4-cyclopropylphenyl)-17-(1,1-difluoroprop-2-yn-1-yl)-17-hydroxy-13-methyl-1,2,6,7,8,11,12,13,14,15,16,17-dodecahydro-3H-cyclopenta[a]phenanthren-3-one O-(2-(piperazin-1-yl)ethyl)oxime], 10 to 100 nM. On the same count and under the same terms, as for `C#CC(F)(F)[C@]1(O)CC[C@H]2[C@@H]3CCC4=C/C(=N/NC(=O)NC5CC5)CCC4=C3[C@H](c3ccc(OCC(F)(F)F)cc3)C[C@@]21C` [Compound 55, (E)-N-cyclopropyl-2-((8S,11S,13S,14S,17S)-17-(1,1-difluoroprop-2-yn-1-yl)-17-hydroxy-13-methyl-11-(4-(2,2,2-trifluoroethoxy)phenyl)-1,2,6,7,8,11,12,13,14,15,16,17-dodecahydro-3H-cyclopenta[a]phenanthren-3-ylidene)hydrazine-1-carboxamide], the figure is 10 to 100 nM.
